# From publication PMC8445934, “Transformation of tenofovir into stable ProTide nanocrystals with long-acting pharmacokinetic profiles” (Nature Communications, 2021)
# “And” between values parts separate entries of the source, which are not always exact repeats. Identical values can stand only once. Like-named read-outs stand apart in the source and are kept apart here.
# Key:
# HIV-1ADA [1] = assay: Antiretroviral EC50/IC50 in MDM by HIV-1 RT activity after HIV-1ADA challenge; type: cell-based; conditions: for RT activity (cpm/ mL): replicate wells
# Protocol: (§1) To determine long-term antiretroviral efficacy following a single treatment, MDMs were plated in flat-bottom 12-well plates at a density of 1.2 × 10^6 cells/well. […] After treatment, the cells were washed twice with PBS and cultured in a fresh culture medium without drug with half-media replacement every other day. On days 1, 5, 10, 15, 20, 25, and 30 following treatment, the cells were infected with HIV-1ADA (a macrophage-tropic viral strain) at a multiplicity of infection of 0.1 infectious particles/cell for 8 h. MDM were cultured, and media samples collected on day 10 for the measurement of HIV reverse transcriptase (RT) activity as previously described[64],[65]. Cells were fixed in 2% PFA at each time point, and expression of the HIV-1p24 antigen was determined by immunocytochemistry. […] After 4 h of viral challenge, the cells were washed with PBS and given fresh media that contained the same concentrations of drug (0.00005–5,000 nM). Cell supernatants were collected 10 days later and assayed for HIV-1 RT activity as described above. Replicate studies were performed in CEM-ss CD4+ T-cell cultures. Specifically, cells were plated in 96-well plates, centrifuged at 650 × g for 5 min, and resuspended in (0.1–1,000 nM) drug-containing media for 1 h. The subsequent challenge with HIV-1NL4–3-eGFP, cell culture, sample collection, and determination of HIV-1 RT activity were performed as previously reported[13],[15].
# [2] = Aqueous and 1-octanol solubility (excess drug, shaking 48 h, UPLC-UV); type: physicochemical; conditions: for solubility at 48 h: water, thermodynamic from solid
# Protocol: Samples were centrifuged at 20,000 × g for 10 min to separate the solubilized drug from insoluble pellet. Aqueous supernatants were frozen, lyophilized, and then resuspended in MeOH. 1-octanol supernatants were prepared for analysis by dilution in MeOH and samples analyzed for drug content by UPLC-UV (Waters Acquity H Class).
# HIV-1NL4–3-eGFP = assay: microbe, parasite or virus in culture; type: cell-based; conditions: for % GFP Positive: replicates
# Source text: Supplementary Fi gur e 9. ProTide Biological Characterizations. […]
# (1 picture or pasted object on this page, not shown here)
# HIV-1ADA [3] = assay: Long-term antiretroviral efficacy in MDM after single 8 h treatment (HIV-1 RT activity, p24); type: cell-based; conditions: for HIV-1 RT activity: MDM, 10 µM (Figure 4D)
# Protocol: as §1
# [4] = Prodrug chemical stability of dissociated nanoformulations in pH 2.0-10.3 buffers; type: physicochemical; conditions: buffers pH 2.0-10.3, 24 h
# Protocol: The mixtures were centrifuged at 16,000 × g for 10 min. The supernatants were aspirated and stored at −80 °C until ultraperformance liquid chromatography tandem mass spectrometry (UPLC-MS/MS) analysis.
smiles,measurement,setting,value
"CC(C)OC(=O)[C@H](C)N[P@](=O)(CO[C@H](C)Cn1cnc2c(N)ncnc21)Oc1ccccc1 [TAF, tenofovir alafenamide]",EC50,"HIV-1ADA [1]; Human immunodeficiency virus 1, 240 h",0.22 nM
same,RT activity (cpm/ mL),HIV-1ADA [1]; drug concentration 5e-6 nM,29.681 cpm/ mL and 30.024 cpm/ mL and 28.68 cpm/ mL
same,RT activity (cpm/ mL),HIV-1ADA [1]; drug concentration 5e-5 nM,35.114 cpm/ mL and 41.925 cpm/ mL and 38.687 cpm/ mL
same,RT activity (cpm/ mL),HIV-1ADA [1]; drug concentration 0.0005 nM,33.176 cpm/ mL and 39.763 cpm/ mL and 30.439 cpm/ mL
same,RT activity (cpm/ mL),HIV-1ADA [1]; drug concentration 0.005 nM,15.954 cpm/ mL and 19.78 cpm/ mL and 30.439 cpm/ mL
same,RT activity (cpm/ mL),HIV-1ADA [1]; drug concentration 0.05 nM,13.503 cpm/ mL and 38.469 cpm/ mL
same,RT activity (cpm/ mL),HIV-1ADA [1]; drug concentration 0.5 nM,16.77 cpm/ mL and 16.849 cpm/ mL and 12.873 cpm/ mL
same,RT activity (cpm/ mL),HIV-1ADA [1]; drug concentration 5 nM,0.361 cpm/ mL and 0.448 cpm/ mL and 0.415 cpm/ mL
same,RT activity (cpm/ mL),HIV-1ADA [1]; drug concentration 50 nM,0.452 cpm/ mL and 0.242 cpm/ mL
same,RT activity (cpm/ mL),HIV-1ADA [1]; drug concentration 500 nM,0.23 cpm/ mL and 0.324 cpm/ mL and 0.407 cpm/ mL
same,RT activity (cpm/ mL),HIV-1ADA [1]; drug concentration 5000 nM,0.233 cpm/ mL and 0.252 cpm/ mL and 0.245 cpm/ mL
same,"water solubility, individual replicates",[2]; Figure 1C source data,4.882
same,solubility at 48 h,"[2]; Figure 1C source data, read-out: water solubility, individual replicates",6160 µg/mL
same,solubility at 48 h,"[2]; room temperature, 48 h, read-out: aqueous solubilities",5520 µg/mL
same,EC50,"HIV-1NL4–3-eGFP; Human immunodeficiency virus 1, CEM-SS",0.33 nM
same,% GFP Positive,HIV-1NL4–3-eGFP; Log Drug Concentration (uM) 0,0.094% and 0.243% and 0.132%
same,% GFP Positive,HIV-1NL4–3-eGFP; Log Drug Concentration (uM) -1,0.087% and 0.114% and 0.038%
same,% GFP Positive,HIV-1NL4–3-eGFP; Log Drug Concentration (uM) -2,0.071% and 0.098% (2×)
same,% GFP Positive,HIV-1NL4–3-eGFP; Log Drug Concentration (uM) -3,0.109% and 0.099% and 0.2%
same,% GFP Positive,HIV-1NL4–3-eGFP; Log Drug Concentration (uM) -4,39.441% and 35.802% and 35.047%
same,% GFP Positive,HIV-1NL4–3-eGFP; Log Drug Concentration (uM) -5,32.55% and 34.185% and 34.763%
same,% GFP Positive,HIV-1NL4–3-eGFP; Log Drug Concentration (uM) -6,38.186% and 33.243% and 31.663%
same,% GFP Positive,HIV-1NL4–3-eGFP; Log Drug Concentration (uM) -9,36.164% and 40.34% and 38.638%
same,% GFP Positive,HIV-1NL4–3-eGFP; Log Drug Concentration (uM) -12,43.7% and 40.475% and 37.429%
same,viral breakthrough,"HIV-1ADA [3]; 10 μM, day 30",complete viral breakthrough
same,inhibition at 10 µM,"HIV-1ADA [3]; Human immunodeficiency virus 1, 240 h, read-out: viral inhibition",84.5%
same,HIV-1 RT activity,"HIV-1ADA [3]; challenge day 1, replicates",1.694 % of postive control and 1.963 % of postive control and 1.344 % of postive control and 1.665 % of postive control and 1.247 % of postive control and 0.8808 % of postive control
same,HIV-1 RT activity,"HIV-1ADA [3]; challenge day 5, replicates",1.516 % of postive control and 1.942 % of postive control and 1.963 % of postive control and 1.828 % of postive control and 2.306 % of postive control and 0.4466 % of postive control
same,HIV-1 RT activity,"HIV-1ADA [3]; challenge day 10, replicates",13.8971 % of postive control and 15.2412 % of postive control and 16.845 % of postive control and 11.6649 % of postive control and 19.6336 % of postive control and 17.0654 % of postive control
same,HIV-1 RT activity,"HIV-1ADA [3]; challenge day 15, replicates",10.4755 % of postive control and 3.747 % of postive control and 7.537 % of postive control and 13.2434 % of postive control and 32.8105 % of postive control
same,HIV-1 RT activity,"HIV-1ADA [3]; challenge day 30, replicates",86.3496 % of postive control and 48.9086 % of postive control and 79.0354 % of postive control and 54.8629 % of postive control
same,hydrolytic stability across pH,[4],hydrolytically unstable at basic pH
